Laboratory results as given in ChEMBL document CHEMBL5260810, “Inhibition of bromodomain-containing protein 9 for the prevention of epigenetically-defined drug resistance” (Bioorg Med Chem Lett, 2017).
Active and inactive are the calls of the source.

Key:
PANC-1 = assay: Antiproliferative activity against human PANC-1 cells assessed as reduction in colony formation up to 20 uM supplemented with fresh medium containing compound every 3 days for 9 days by MTT staining based clonogenic assay; format: functional, cell-based; settings: time 9.0 day
[1] = biological target: T1, Bromodomain-containing protein 9 (Homo sapiens) (UniProt Q9H8M2); assay: Inhibition of BRD9 in human PC-9 cells assessed as reduction in ALDH1A1 gene expression at 5 uM preincubated with erlotinib for 8 days followed by compound addition and measured after 24 hrs by RNA sequencing analysis; format: cell-based
T1 sequence (whole entry): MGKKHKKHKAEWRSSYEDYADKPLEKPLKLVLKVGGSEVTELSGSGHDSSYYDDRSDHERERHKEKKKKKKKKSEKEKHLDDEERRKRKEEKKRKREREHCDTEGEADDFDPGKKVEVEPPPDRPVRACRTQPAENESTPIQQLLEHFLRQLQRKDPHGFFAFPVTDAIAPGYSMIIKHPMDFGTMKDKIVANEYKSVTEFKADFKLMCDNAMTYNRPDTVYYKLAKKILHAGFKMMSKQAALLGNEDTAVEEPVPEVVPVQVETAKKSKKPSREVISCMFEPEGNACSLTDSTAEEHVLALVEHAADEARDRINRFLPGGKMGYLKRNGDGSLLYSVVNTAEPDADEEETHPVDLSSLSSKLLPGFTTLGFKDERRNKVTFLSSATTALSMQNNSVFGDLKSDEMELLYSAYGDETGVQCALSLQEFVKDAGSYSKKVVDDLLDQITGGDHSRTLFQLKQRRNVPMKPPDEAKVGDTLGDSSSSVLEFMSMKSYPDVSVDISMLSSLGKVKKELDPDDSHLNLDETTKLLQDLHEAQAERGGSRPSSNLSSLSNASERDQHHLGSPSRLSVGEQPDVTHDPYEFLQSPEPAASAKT

GABA-B receptor = GABA-B receptor (Homo sapiens, UniProt O75899+Q9UBS5); assay: Inhibition of human GABA-B receptor at 10 uM relative to control; format: protein-complex assay
Sequence of GABA-B receptor (Q9UBS5 whole entry): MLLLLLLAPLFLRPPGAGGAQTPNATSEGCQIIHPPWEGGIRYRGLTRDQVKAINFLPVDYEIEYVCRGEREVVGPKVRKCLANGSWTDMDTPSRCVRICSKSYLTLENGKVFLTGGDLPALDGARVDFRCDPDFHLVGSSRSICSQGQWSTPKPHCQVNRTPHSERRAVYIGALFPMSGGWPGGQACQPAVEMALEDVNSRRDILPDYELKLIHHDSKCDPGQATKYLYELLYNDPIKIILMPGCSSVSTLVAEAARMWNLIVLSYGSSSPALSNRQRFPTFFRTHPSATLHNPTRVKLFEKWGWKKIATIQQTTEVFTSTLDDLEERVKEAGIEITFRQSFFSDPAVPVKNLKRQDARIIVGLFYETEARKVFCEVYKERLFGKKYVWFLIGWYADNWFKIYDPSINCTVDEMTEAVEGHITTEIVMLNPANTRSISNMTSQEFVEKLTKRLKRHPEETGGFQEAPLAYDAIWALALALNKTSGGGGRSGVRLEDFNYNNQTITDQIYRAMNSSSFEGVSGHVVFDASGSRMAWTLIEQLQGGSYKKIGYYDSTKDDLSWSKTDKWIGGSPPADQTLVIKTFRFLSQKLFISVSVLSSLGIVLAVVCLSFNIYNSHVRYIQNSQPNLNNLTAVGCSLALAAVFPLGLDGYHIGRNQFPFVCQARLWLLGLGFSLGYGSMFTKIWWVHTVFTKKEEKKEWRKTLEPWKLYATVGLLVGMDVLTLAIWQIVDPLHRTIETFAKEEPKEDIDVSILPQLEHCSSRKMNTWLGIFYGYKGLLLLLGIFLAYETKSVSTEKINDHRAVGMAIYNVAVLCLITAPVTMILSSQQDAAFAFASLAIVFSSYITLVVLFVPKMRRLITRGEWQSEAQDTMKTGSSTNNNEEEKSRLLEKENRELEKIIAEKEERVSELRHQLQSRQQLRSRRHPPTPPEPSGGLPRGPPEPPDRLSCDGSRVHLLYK
Sequence of GABA-B receptor (O75899 whole entry): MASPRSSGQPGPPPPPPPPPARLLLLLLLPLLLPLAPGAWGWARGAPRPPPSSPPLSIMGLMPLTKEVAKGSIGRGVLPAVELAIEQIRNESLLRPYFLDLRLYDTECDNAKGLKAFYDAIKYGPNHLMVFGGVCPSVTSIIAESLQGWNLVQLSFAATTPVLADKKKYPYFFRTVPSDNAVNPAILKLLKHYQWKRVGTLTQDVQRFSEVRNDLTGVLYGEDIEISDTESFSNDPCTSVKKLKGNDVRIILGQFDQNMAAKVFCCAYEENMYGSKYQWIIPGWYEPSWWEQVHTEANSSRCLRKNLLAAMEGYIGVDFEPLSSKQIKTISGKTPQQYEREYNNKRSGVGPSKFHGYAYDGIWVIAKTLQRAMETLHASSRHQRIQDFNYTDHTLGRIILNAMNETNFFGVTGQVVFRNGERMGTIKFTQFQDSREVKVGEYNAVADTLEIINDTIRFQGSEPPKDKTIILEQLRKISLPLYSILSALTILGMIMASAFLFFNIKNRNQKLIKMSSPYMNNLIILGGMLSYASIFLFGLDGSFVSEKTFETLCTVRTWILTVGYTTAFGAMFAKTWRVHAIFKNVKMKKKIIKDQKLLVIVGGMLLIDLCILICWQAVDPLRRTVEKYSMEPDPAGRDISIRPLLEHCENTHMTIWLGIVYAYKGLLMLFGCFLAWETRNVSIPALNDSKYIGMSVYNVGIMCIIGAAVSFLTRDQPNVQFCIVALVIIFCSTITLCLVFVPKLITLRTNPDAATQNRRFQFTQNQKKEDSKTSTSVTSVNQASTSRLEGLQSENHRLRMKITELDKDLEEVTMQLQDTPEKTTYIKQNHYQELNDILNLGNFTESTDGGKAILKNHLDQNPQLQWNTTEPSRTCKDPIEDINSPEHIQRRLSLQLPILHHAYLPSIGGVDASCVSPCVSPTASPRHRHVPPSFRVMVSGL

BT-549 = assay: Antiproliferative activity against human BT-549 cells assessed as reduction in colony formation up to 20 uM supplemented with fresh medium containing compound every 3 days for 9 days by MTT staining based clonogenic assay; format: functional, cell-based; settings: time 9.0 day
[2] = biological target: T1, Bromodomain-containing protein 9 (Homo sapiens); assay: Inhibition of BRD9 in human PC-9 cells assessed as reduction in ALDH1A1 gene expression at 2 uM preincubated with erlotinib for 8 days followed by compound addition and measured after 24 hrs by RNA sequencing analysis; format: cell-based
[3] = Cytotoxicity against human 537-mel cells after 8 days; format: functional, cell-based; settings: 192 h
ML-2 = assay: Cytotoxicity against human ML-2 cells measured after 3 days; format: functional, cell-based; settings: ML-2, 72 h
HCC1187 = assay: Cytotoxicity against human HCC1187 cells measured after 3 days; format: functional, cell-based; settings: HCC1187, 72 h
NCI-H647 = assay: Cytotoxicity against human NCI-H647 cells measured after 3 days; format: functional, cell-based; settings: NCI-H647, 72 h
[4] = Cytotoxicity against human COV434 cells measured after 3 days; format: functional, cell-based; settings: COV434, 72 h
OVCAR-4 = assay: Cytotoxicity against human OVCAR-4 cells measured after 3 days; format: functional, cell-based; settings: OVCAR-4, 72 h
JJN-3 = assay: Cytotoxicity against human JJN-3 cells measured after 3 days; format: functional, cell-based; settings: JJN-3, 72 h
PLC-PRF-5 = assay: Cytotoxicity against human PLC-PRF-5 cells measured after 3 days; format: functional, cell-based; settings: PLC-PRF-5, 72 h
AU565 = assay: Cytotoxicity against human AU565 cells measured after 3 days; format: functional, cell-based; settings: AU565, 72 h
[5] = Cytotoxicity against human KMS-26 cells measured after 3 days; format: functional, cell-based; settings: KMS-26, 72 h
[6] = Cytotoxicity against human JHH-1 cells measured after 3 days; format: functional, cell-based; settings: JHH1, 72 h
YMB-1-E = assay: Cytotoxicity against human YMB-1-E cells measured after 3 days; format: functional, cell-based; settings: 72 h
OPM-2 = assay: Cytotoxicity against human OPM-2 cells measured after 3 days; format: functional, cell-based; settings: OPM-2, 72 h
NCI-H2444 = assay: Cytotoxicity against human NCI-H2444 cells measured after 3 days; format: functional, cell-based; settings: NCI-H2444, 72 h
[7] = Lipophilicity, log D of the compound at pH 7.4; format: physicochemical; settings: buffer
NOMO-1 = assay: Cytotoxicity against human NOMO-1 cells measured after 3 days; format: functional, cell-based; settings: NOMO-1, 72 h
Daudi = assay: Cytotoxicity against human Daudi cells measured after 3 days; format: functional, cell-based; settings: 72 h
HEY = assay: Cytotoxicity against human HEY cells measured after 3 days; format: functional, cell-based; settings: 72 h
[8] = Cytotoxicity against human NCE-G 22 cells measured after 3 days; format: functional, cell-based; settings: NCE-G 22, 72 h
KMS-12-PE = assay: Cytotoxicity against human KMS-12-PE cells measured after 3 days; format: functional, cell-based; settings: 72 h
EKVX = assay: Cytotoxicity against human EKVX cells after 8 days; format: functional, cell-based; settings: 192 h
EB2 = assay: Cytotoxicity against human EB2 cells measured after 3 days; format: functional, cell-based; settings: EB2, 72 h
[9] = Cytotoxicity against human HS-Sultan cells measured after 3 days; format: functional, cell-based; settings: 72 h
[10] = Cytotoxicity against human JHH7 cells measured after 3 days; format: functional, cell-based; settings: JHH7, 72 h
SW626 = assay: Cytotoxicity against human SW626 cells measured after 3 days; format: functional, cell-based; settings: SW626, 72 h
[11] = Cytotoxicity against human JHH-6 cells measured after 3 days; format: functional, cell-based; settings: JHH-6, 72 h
JeKo-1 = assay: Cytotoxicity against human JeKo-1 cells measured after 3 days; format: functional, cell-based; settings: JeKo-1, 72 h
[12] = Cytotoxicity against human NCE-G 130 cells measured after 3 days; format: functional, cell-based; settings: NCE-G 130, 72 h
EFM-19 = assay: Cytotoxicity against human EFM-19 cells measured after 3 days; format: functional, cell-based; settings: EFM-19, 72 h
SNU-182 = assay: Cytotoxicity against human SNU-182 cells measured after 3 days; format: functional, cell-based; settings: SNU-182, 72 h
[13] = Cytotoxicity against human KMS-21BM cells measured after 3 days; format: functional, cell-based; settings: 72 h
[14] = Cytotoxicity against human NCI-H1568 cells after 8 days; format: functional, cell-based; settings: NCI-H1568, 192 h
MX1 = assay: Cytotoxicity against human MX1 cells measured after 3 days; format: functional, cell-based; settings: MX1, 72 h
T98G = assay: Cytotoxicity against human T98G cells measured after 3 days; format: functional, cell-based; settings: 72 h
[15] = Cytotoxicity against human 59M cells measured after 3 days; format: functional, cell-based; settings: 72 h
[16] = Kinetic solubility of the compound; format: physicochemical; settings: read-out: Kinetic_solubility
[17] = Cytotoxicity against human COV318 cells measured after 3 days; format: functional, cell-based; settings: COV318, 72 h
[18] = Cytotoxicity against human COV413B cells measured after 3 days; format: functional, cell-based; settings: 72 h
HMEC = assay: Cytotoxicity against HMEC cells measured after 8 days; format: functional, cell-based; settings: Homo sapiens, 192 h
K562 = assay: Cytotoxicity against human K562 cells measured after 3 days; format: functional, cell-based; settings: K562, 72 h
ACHN = assay: Cytotoxicity against human ACHN cells measured after 3 days; format: functional, cell-based; settings: 72 h
NCI-H2170 = assay: Cytotoxicity against human NCI-H2170 cells measured after 3 days; format: functional, cell-based; settings: NCI-H2170, 72 h
TYK-nu = assay: Cytotoxicity against human TYK-nu cells measured after 3 days; format: functional, cell-based; settings: 72 h

C/C=C/Cn1cc(-c2ccc(C(C)(C)O)cc2OC)c2cc[nH]c2c1=O
active: inhibition [1]
inactive: Activity (PANC-1) | Activity (BT-549)
4 µM: IC50 (GABA-B receptor)

C/C=C/Cn1cc(-c2ccc(C(=O)N3CCOCC3)cc2)c2cc[nH]c2c1=O
active: inhibition [2]

C/C=C/Cn1cc(-c2cc(OC)c(C(=O)N3CCOCC3)cc2OC)c2cc(C)[nH]c2c1=O
2 µM: IC50 [3] | IC50 (EKVX) | IC50 [14] | IC50 (HMEC)
135 µM: solubility kinetic [16]
2.4: logD [7]
5 µM: IC50 (ML-2) | IC50 (HCC1187) | IC50 (NCI-H647) | IC50 [4] | IC50 (OVCAR-4) | IC50 (JJN-3) | IC50 (PLC-PRF-5) | IC50 (AU565) | IC50 [5] | IC50 [6] | IC50 (YMB-1-E) | IC50 (OPM-2) | IC50 (NCI-H2444) | IC50 (NOMO-1) | IC50 (Daudi) | IC50 (HEY) | IC50 [8] | IC50 (KMS-12-PE) | IC50 (EB2) | IC50 [9] | IC50 [10] | IC50 (SW626) | IC50 [11] | IC50 (JeKo-1) | IC50 [12] | IC50 (EFM-19) | IC50 (SNU-182) | IC50 [13] | IC50 (MX1) | IC50 (T98G) | IC50 [15] | IC50 [17] | IC50 [18] | IC50 (K562) | IC50 (ACHN) | IC50 (NCI-H2170) | IC50 (TYK-nu)
